This is an account of results in patent US8293768B2, “Organic compounds” (Novartis AG, priority 2006, dated 2012).

Data set [1] deals with T1, stearoyl-CoA desaturase (SCD1) (Mus musculus, UniProt P13516).
T1 construct: Reactions are started by adding 50 μL of microsomes (1.25 mg/mL); from tissue; host or cells: liver microsomes of male ICR outbred mice on a high-carbohydrate, low fat diet
T1 sequence (P13516 1-355): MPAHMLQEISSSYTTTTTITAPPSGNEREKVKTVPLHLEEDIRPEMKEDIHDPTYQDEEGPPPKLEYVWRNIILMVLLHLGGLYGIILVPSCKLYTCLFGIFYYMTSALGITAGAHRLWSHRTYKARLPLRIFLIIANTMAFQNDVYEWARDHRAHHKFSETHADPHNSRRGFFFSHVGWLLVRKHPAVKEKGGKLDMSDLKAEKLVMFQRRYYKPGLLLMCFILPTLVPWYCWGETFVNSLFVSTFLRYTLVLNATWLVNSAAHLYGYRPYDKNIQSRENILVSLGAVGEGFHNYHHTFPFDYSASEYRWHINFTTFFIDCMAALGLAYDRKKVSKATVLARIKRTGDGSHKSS
Briefly: SCD microsomal assay: release of 3H2O from [9,10-3H]stearoyl-CoA in mouse liver microsomes. To be noted: 15 min incubation at 25° C. Format: biochemical. From the text: The identification of compounds of the invention as SCD inhibitors was readily accomplished using the SCD enzyme and microsomal assay procedure described in Shanklin J. and Summerville C., Proc. Natl. Acad. Sci. USA (1991), Vol. 88, pp. 2510-2514.
Measuring Stearoyl-CoA Desaturase Inhibition Activity of a Test Compound Using Mouse Liver Microsomes
The identification of compounds of the invention as SCD inhibitors was readily accomplished using the SCD microsomal assay procedure described in Shanklin J. and Summerville C., Proc. Natl. Acad. Sci. USA (1991), Vol. 88, pp. 2510-2514.
Male ICR outbread mice, on a high-carbohydrate, low fat diet, under light halothane (15% in mineral oil) anesthesia are sacrificed by exsanguination during periods of high enzyme activity. Livers are immediately rinsed with cold 0.9% NaCl solution, weighed and minced with scissors. All procedures are performed at 4° C. unless specified otherwise. Livers are homogenized in a solution (1/3 w/v) containing 0.25 M sucrose, 62 mM potassium phosphate buffer (pH 7.0), 0.15 M KCl, 15 mM N-acetyleysteine, 5 mM MgCl2, and 0.1 mM EDTA using 4 strokes of a Potter-Elvehjem tissue homogenizer. The homogenate is centrifuged at 10,400×g for 20 min to eliminate mitochondria and cellular debris. The supernatant is filtered through a 3-layer cheesecloth and centrifuged at 105,000×g for 60 min. The microsomal pellet is gently resuspended in the same homogenization solution with a small glass/teflon homogenizer and stored at −70° C. The absence of mitochondrial contamination is enzymatically assessed. The protein concentration is measured using bovine serum albumin as the standard.
Desaturase activity is measured as the release of ^3H2O from [9,10-^3H]stearoyl-CoA. Reactions per assay point conditions are as follows: 2 μL 1.5 mM stearoyl-CoA, 0.25 μL 1 mCi/mL ^3H stearoyl CoA, 10 μL 20 mM NADH, 36.75 μL 0.1 M PK buffer (K2HPO4/NaH2PO4, pH 7.2). The test compound or control solution is added in a 1 μL volume. Reactions are started by adding 50 μL of microsomes (1.25 mg/mL). The plates are mixed and after 15 min incubation on a heating block (25° C.), the reactions are stopped by the addition of 10 μL 60% PCA. An aliquot of 100 μL is then transferred to a filter plate pretreated with charcoal and the plate centrifuged at 4000 rpm for 1 minute. The flow through containing the ^3H2O released by the SCD1 desaturation reaction is added to scintillation fluid and the radioactivity measured in a Packard TopCount. The data is analysed to identify the IC50 for test compounds and reference compounds. […] The activity was defined in terms of % SCD enzyme activity remaining at the desired concentration of the test compound or as the IC50 concentration. The IC50 (affinity) of the example compounds toward the stearoyl-CoA desaturase is comprised between around […] and 0.0001 μM or between around 5 μM and 0.0001 μM or between around 1 μM and 0.0001 μM.

In general, melting point refers to the temperature of the solid-liquid transition. What is called IC50 is the midpoint of a concentration-inhibition curve.

Regarding `Cc1nc(N2CCN(Cc3ccccn3)C2=O)sc1C(=O)NCc1cccnc1` [Example 32.8, 4-methyl-2-(2-oxo-3-(pyridin-2-ylmethyl)imidazolidin-1-yl)-N-(pyridin-3-ylmethyl)thiazole-5-carboxamide], the melting point lay in the range of 58 to 61 °C. This compound showed a 50% inhibitory concentration (IC50) in data set [1] of 0.267 µM. For the compound `Cc1nc(N2CCN(Cc3ccc(C(F)(F)F)cc3)C2=O)sc1-c1ccno1` [Example 38.1, 1-(5-(isoxazol-5-yl)-4-methylthiazol-2-yl)-3-(4-(trifluoromethyl)benzyl)imidazolidin-2-one], the melting point is 153 to 154 °C. In data set [1], the IC50 amounted to 1.24 µM. With `O=C(NCc1cccnc1)c1sc(N2CCN(Cc3ccc(F)cc3)C2=O)nc1C(F)(F)F` [Example 26.1, 2-(3-(4-fluorobenzyl)-2-oxoimidazolidin-1-yl)-N-(pyridin-3-ylmethyl)-4-(trifluoromethyl)thiazole-5-carboxamide], the melting point lay within 161 to 162 °C. In addition, the midpoint of inhibition in data set [1], the IC50, lay at 0.039 µM. The compound `Cc1nc(N2CCN(Cc3ccc(C(F)(F)F)cc3)C2=O)sc1Br` [Example 45, 1-(5-bromo-4-methylthiazol-2-yl)-3-(4-(trifluoromethyl)benzyl)imidazolidin-2-one] showed a melting point of 107 to 108 °C. In data set [1], this compound gave a half-maximal inhibitory concentration (IC50) of 0.459 µM. In the same order, the values of `Cc1nc(-n2cnn(CC(=O)Nc3ccc(Cl)cc3)c2=O)sc1C(=O)NCc1cccnc1` [Example 19.10, 2-(1-(2-(4-chlorophenylamino)-2-oxoethyl)-5-oxo-1H-1,2,4-triazol-4(5H)-yl)-4-methyl-N-(pyridin-3-ylmethyl)thiazole-5-carboxamide] are 255 to 256 °C and 0.577 µM. In turn, `Cc1nc(-n2ccn(Cc3ccc(C(F)(F)F)cc3)c2=O)sc1C(=O)NCc1cccnc1` [Example 17.3, 4-methyl-2-(2-oxo-3-(4-(trifluoromethyl)benzyl)-2,3-dihydro-1H-imidazol-1-yl)-N-(pyridin-3-ylmethyl)thiazole-5-carboxamide] returned a melting point of 163 to 164 °C. The same compound registered an IC50 in data set [1] of 0.012 µM. For `Cc1nc(N2CCN(CC3CCCCO3)C2=O)sc1C(=O)NCc1ccccc1` (centres unmarked) [Example 23.6, N-benzyl-4-methyl-2-(2-oxo-3-((tetrahydro-2H-pyran-2-yl)methyl)imidazolidin-1-yl)thiazole-5-carboxamide], it took 0.495 µM to reach half-maximal inhibition in data set [1] (IC50). In other words, the sub-micromolar range.

For `CCOC(=O)c1ccc(CN2CCN(c3nc(C)c(C(=O)NCc4ccccc4)s3)C2=O)cc1` [Example 23.2, ethyl 4-((3-(5-(benzylcarbamoyl)-4-methylthiazol-2-yl)-2-oxoimidazolidin-1-yl)methyl)benzoate], the melting point lay within 118 to 120 °C. In addition, the IC50 in data set [1] amounted to 0.061 µM. The compound `CCN1CCN(c2nc(C)c(C(=O)NCc3cccnc3)s2)C1=O` [Example 9.39, 2-(3-ethyl-2-oxoimidazolidin-1-yl)-4-methyl-N-(pyridin-3-ylmethyl)thiazole-5-carboxamide] had a melting point of 163 to 164 °C. The compound also registered an IC50 in data set [1] of 0.124 µM.

In data set [1], `Cc1cc(N2CCN(Cc3ccc(F)cc3)C2=O)sc1C(=O)NC1Cc2ccccc2C1` [Example 55.8, N-(2,3-dihydro-1H-inden-2-yl)-5-(3-(4-fluorobenzyl)-2-oxoimidazolidin-1-yl)-3-methylthiophene-2-carboxamide] gave a concentration for half-maximal inhibition (IC50) of 0.027 µM. This lies in the double-digit nanomolar range. The same measure, in the same setting: the value for `Cc1cc(N2CCN(Cc3ccc(F)cc3)C2=O)sc1-c1nc(Cc2ccccc2)c[nH]1` [Example 60, 1-(5-(4-benzyl-1H-imidazol-2-yl)-4-methylthiophen-2-yl)-3-(4-fluorobenzyl)imidazolidin-2-one] was 0.428 µM. With `Cc1nc(N2CCN(Cc3ccccc3)C2=N)sc1C(=O)NCc1ccccc1` [Example 27.3, N-benzyl-2-(3-benzyl-2-iminoimidazolidin-1-yl)-4-methylthiazole-5-carboxamide], the melting point is 125 to 126 °C. This compound also displayed an IC50 in data set [1] of 0.025 µM.

In turn, `Cc1noc(-c2sc(N3CCN(Cc4ccc(C(F)(F)F)cc4)C3=O)nc2C)n1` [Example 44, 1-(4-methyl-5-(3-methyl-1,2,4-oxadiazol-5-yl)thiazol-2-yl)-3-(4-(trifluoromethyl)benzyl)imidazolidin-2-one] displayed a melting point of 163 to 164 °C. In data set [1], the half-inhibitory concentration (IC50) was 0.152 µM.
